{"source": "patent US20040185566A1", "about": "“Polypeptides toxic to nematodes and methods of use” (priority 2003, published 2004)", "biological_target": "SMP #1 (Serratia marcescens, UniProt P23694, N428Q/P266L)", "assay_type": "biochemical, S. marcescens NRRL B-23112", "note": "Read-outs that look alike come from different tables or passages of the source. Where a SMILES comes first, the peptide text is derived from it. [ ]: non-standard residue; d: D form. The star is where a group is joined. Sta = CC(C)C[C@H](N)[C@@H](O)CC(=O)O; Isovaleryl = CC(C)CC(=O)*", "data": [{"compound": "CC(C)C[C@H](NP(=O)(O)O[C@@H]1O[C@@H](C)[C@H](O)[C@@H](O)[C@H]1O)C(=O)N[C@@H](Cc1c[nH]c2ccccc12)C(=O)O", "note": "[phosphoramidon]", "values": [{"measurement": "inhibition of SMP #1 proteolytic activity", "setting": "phosphoramidon 660 μ/ml", "value": "not inhibited"}]}, {"compound": "CC(C)C[C@H](NC(=O)[C@@H](O)[C@H](N)Cc1ccccc1)C(=O)O", "note": "[bestatin]", "values": [{"measurement": "inhibition of SMP #1 proteolytic activity", "setting": "bestatin 80 μg/ml", "value": "not inhibited"}]}, {"compound": "CC(C)CC(=O)N[C@H](C(=O)N[C@H](C(=O)N[C@@H](CC(C)C)[C@@H](O)CC(=O)N[C@@H](C)C(=O)N[C@@H](CC(C)C)[C@@H](O)CC(=O)O)C(C)C)C(C)C", "note": "[pepstatin] (Isovaleryl-VV[Sta]A[Sta]-OH)", "values": [{"measurement": "inhibition of SMP #1 proteolytic activity", "setting": "pepstatin 4 μg/ml", "value": "not inhibited"}]}, {"compound": "O=S(=O)(F)Cc1ccccc1", "note": "[phenylmethylsulfonyl fluoride]", "values": [{"measurement": "inhibition of SMP #1 proteolytic activity", "setting": "phenylmethylsulfonyl fluoride 400 μ/ml", "value": "not inhibited"}]}, {"compound": "CC(C)C[C@H](NC(=O)[C@@H](NC(=O)N[C@@H](Cc1ccccc1)C(=O)O)[C@@H]1CCN=C(N)N1)C(=O)N[C@H](C=O)Cc1ccccc1", "note": "[chymostatin]", "values": [{"measurement": "inhibition of SMP #1 proteolytic activity", "setting": "chymostatin 50 μg/ml", "value": "not inhibited"}]}, {"compound": "CC(=O)N[C@@H](CC(C)C)C(=O)N[C@@H](CC(C)C)C(=O)N[C@H](C=O)CCCNC(=N)N", "note": "[leupeptin]", "values": [{"measurement": "inhibition of SMP #1 proteolytic activity", "setting": "leupeptin 4 μg/ml", "value": "not inhibited"}]}]}
